Read-outs that look alike come from different tables or passages of the source. Positions of bridges follow the written chain, without caps; N, C: chain ends. Non-standard residues stand in square brackets, D forms with d. Residues, ends and D or L forms follow the SMILES beside them. ξ: configuration not given here. d(cisHyp) = O=C(O)[C@H]1C[C@@H](O)CN1; Bta = N[C@@H](Cc1csc2ccccc12)C(=O)O; Hyp = O=C(O)[C@@H]1C[C@@H](O)CN1; NMehSer = CN[C@@H](CCO)C(=O)O; NMeNle = CCCC[C@H](NC)C(=O)O; NMeA = CN[C@@H](C)C(=O)O; Nle = CCCC[C@H](N)C(=O)O; ξC = NC(CS)C(=O)O
Experiments:
[1] = target: T1, Human PD-L1/PD-1 (Homo sapiens, UniProt Q9NZQ7); test: HTRF PD-1-Ig/PD-L1-His binding assay (human PD-L1)
T1 construct: made in house; host or cells: HEK293T
T1 sequence (Q9NZQ7 with tags, fused parts or gaps): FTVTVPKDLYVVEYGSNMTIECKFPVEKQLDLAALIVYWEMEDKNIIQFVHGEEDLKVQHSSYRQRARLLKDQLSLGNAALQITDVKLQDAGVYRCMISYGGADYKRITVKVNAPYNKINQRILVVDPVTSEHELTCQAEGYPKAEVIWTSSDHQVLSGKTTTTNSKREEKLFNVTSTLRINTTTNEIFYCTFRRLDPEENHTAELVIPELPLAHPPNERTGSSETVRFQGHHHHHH
Outline: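 Interaction of Fc-tagged soluble PD-1 with His-tagged soluble PD-L1 is monitored by time-resolved FRET. Donor is europium cryptate anti-Ig (1 nM final) and acceptor is APC anti-His (20 nM final). Assay buffer is dPBS with 0.1% BSA and 0.05% Tween-20.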

[2] = target: T2, LK35.2-hPD-L1 cells / PE-labeled PD-1-Ig (Homo sapiens, UniProt Q9NZQ7); test: LK35.2-hPD-L1 cell binding high-content screening assay; format: cell-based; details: cell binding assay, cell line not given
T2 construct: expressed in transfected cells; host or cells: LK35.2 mouse B cell line
T2 sequence (Q9NZQ7 19-290): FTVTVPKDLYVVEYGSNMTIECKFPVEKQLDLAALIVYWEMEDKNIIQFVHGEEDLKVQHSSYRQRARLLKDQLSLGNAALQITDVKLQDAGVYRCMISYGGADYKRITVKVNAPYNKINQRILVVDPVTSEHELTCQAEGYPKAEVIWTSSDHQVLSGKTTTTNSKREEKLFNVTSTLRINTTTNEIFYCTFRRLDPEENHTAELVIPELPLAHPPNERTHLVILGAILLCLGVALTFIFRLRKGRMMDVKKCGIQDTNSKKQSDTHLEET
Outline: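 Mouse LK35.2 B cells stably overexpressing human PD-L1 were cultured overnight in RPMI with 10% FCS, then given compound and PE-labeled human PD-1-Ig (1 nM final) for 1 h at 37 °C. After three dPBS washes, bound fluorescence was quantified by high-content imaging.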

[3] = cluster symbol, read-out: HTRF IC50 cluster
[4] = cluster symbol, read-out: CBA IC50 cluster

Row | Compound | IC50 [1, 3] [nM] | IC50 [2, 4] [nM] | IC50 ([1]; numeric value, read-out: HTRF IC50 values) [nM] | IC50 ([2]; numeric value, read-out: CBA IC50 values) [nM]
1 | CCCC[C@H]1C(=O)N(C)[C@@H](CCCC)C(=O)N[C@@H](CCCNC(=N)N)C(=O)NC(C(=O)NCC(N)=O)CSCC(=O)N[C@@H](Cc2ccc(O)cc2)C(=O)N(C)[C@@H](C)C(=O)N[C@@H](CC(N)=O)C(=O)N2C[C@H](O)C[C@H]2C(=O)N[C@@H](Cc2cnc[nH]2)C(=O)N[C@@H](CC(C)C)C(=O)N2CCC[C@@H]2C(=O)N[C@@H](Cc2c[nH]c3ccccc23)C(=O)N[C@@H](CO)C(=O)N[C@@H](Cc2csc3ccccc23)C(=O)N1C (stereo partly shown) [Example 9001] ({CH2CO}-Y[NMeA]N[Hyp]HL[dP]WS[Bta][NMeNle][NMeNle]R[ξC]G-NH2; thioether N-14) | 6.76 to 30.3 | 0.158 to 4.71 | – | –
2 | CCCC[C@@H]1NC(=O)[C@H](Cc2cnc[nH]2)NC(=O)[C@@H]2CCCN2C(=O)[C@H](CC(N)=O)NC(=O)[C@H](C)N(C)C(=O)[C@H](Cc2ccc(O)cc2)NC(=O)CSCC(C(=O)NCC(N)=O)NC(=O)[C@H](CCCNC(=N)N)NC(=O)[C@H](CCCC)N(C)C(=O)[C@H](CCCC)N(C)C(=O)[C@H](Cc2csc3ccccc23)NC(=O)[C@H](CO)NC(=O)[C@H](Cc2c[nH]c3ccccc23)NC(=O)[C@H]2CCCN2C1=O (stereo partly shown) [Example 9002] ({CH2CO}-Y[NMeA]NPH[Nle][dP]WS[Bta][NMeNle][NMeNle]R[ξC]G-NH2; thioether N-14) | 6.76 to 30.3 | 4.78 to 72.9 | – | –
3 | CCCC[C@H]1C(=O)N(C)[C@@H](CCOC)C(=O)N[C@@H](CCCNC(=N)N)C(=O)N[C@H](C(=O)NCC(N)=O)CSCC(=O)N[C@@H](Cc2ccc(O)cc2)C(=O)N(C)[C@@H](C)C(=O)N[C@@H](CC(N)=O)C(=O)N2CCC[C@H]2C(=O)N[C@@H](Cc2cnc[nH]2)C(=O)N[C@@H](CC(C)C)C(=O)N2C[C@H](O)C[C@@H]2C(=O)N[C@@H](Cc2c[nH]c3ccccc23)C(=O)N[C@@H](CO)C(=O)N[C@@H](Cc2csc3ccccc23)C(=O)N1C [Example 9006] ({CH2CO}-Y[NMeA]NPHL[d(cisHyp)]WS[Bta][NMeNle][NMehSer](Me)RCG-NH2; thioether N-14) | 0.385 to 6.74 | 0.158 to 4.71 | – | –
4 | CCCC[C@H]1C(=O)N[C@@H](CCCNC(=N)N)C(=O)N[C@H](C(=O)NCC(N)=O)CSCC(=O)N[C@@H](Cc2ccc(O)cc2)C(=O)N(C)[C@@H](C)C(=O)N[C@@H](CC(N)=O)C(=O)N2CCC[C@H]2C(=O)N[C@@H](Cc2cnc[nH]2)C(=O)N[C@@H](CC(C)C)C(=O)N2C[C@H](O)C[C@@H]2C(=O)N[C@@H](Cc2c[nH]c3ccccc23)C(=O)N[C@@H](CO)C(=O)N[C@@H](Cc2csc3ccccc23)C(=O)N(C)[C@@H](CCOC)C(=O)N1C [Example 9007] ({CH2CO}-Y[NMeA]NPHL[d(cisHyp)]WS[Bta][NMehSer](Me)[NMeNle]RCG-NH2; thioether N-14) | 0.385 to 6.74 | 0.158 to 4.71 | – | –
5 | CCCC[C@H]1C(=O)N(C)[C@@H](CCOC)C(=O)N[C@@H](CCCNC(=N)N)C(=O)NC(C(=O)NCC(N)=O)CSCC(=O)N[C@@H](Cc2ccc(O)cc2)C(=O)N(C)[C@@H](C)C(=O)N[C@@H](CC(=O)O)C(=O)N2CCC[C@H]2C(=O)N[C@@H](Cc2cnc[nH]2)C(=O)N[C@@H](CC(C)C)C(=O)N2CCC[C@H]2C(=O)N[C@@H](Cc2c[nH]c3ccccc23)C(=O)N[C@@H](CO)C(=O)N[C@@H](Cc2csc3ccccc23)C(=O)N1C (stereo partly shown) [Example 9008] ({CH2CO}-Y[NMeA]DPHLPWS[Bta][NMeNle][NMehSer](Me)R[ξC]G-NH2; thioether N-14) | 0.385 to 6.74 | 0.158 to 4.71 | – | –
6 | CCCC[C@H]1C(=O)N[C@@H](CCCNC(=N)N)C(=O)NC(C(=O)NCC(N)=O)CSCC(=O)N[C@@H](Cc2ccc(O)cc2)C(=O)N(C)[C@@H](C)C(=O)N[C@@H](CC(=O)O)C(=O)N2CCC[C@H]2C(=O)N[C@@H](Cc2cnc[nH]2)C(=O)N[C@@H](CC(C)C)C(=O)N2CCC[C@H]2C(=O)N[C@@H](Cc2c[nH]c3ccccc23)C(=O)N[C@@H](CO)C(=O)N[C@@H](Cc2csc3ccccc23)C(=O)N(C)[C@@H](CCOC)C(=O)N1C (stereo partly shown) [Example 9009] ({CH2CO}-Y[NMeA]DPHLPWS[Bta][NMehSer](Me)[NMeNle]R[ξC]G-NH2; thioether N-14) | 6.76 to 30.3 | 4.78 to 72.9 | – | –
7 | CCCC[C@H]1C(=O)N[C@@H](CCCNC(=N)N)C(=O)NC(C(=O)NCC(N)=O)CSCC(=O)N[C@@H](Cc2ccc(O)cc2)C(=O)N(C)[C@@H](C)C(=O)N[C@@H](CC(=O)O)C(=O)N2CCC[C@H]2C(=O)N[C@@H](Cc2cnc[nH]2)C(=O)N[C@@H](CC(C)C)C(=O)N2CCC[C@H]2C(=O)N[C@@H](Cc2c[nH]c3ccccc23)C(=O)N[C@@H](CO)C(=O)N[C@@H](Cc2c[nH]c3ccccc23)C(=O)N(C)[C@@H](CCOC)C(=O)N1C (stereo partly shown) [Example 9010] ({CH2CO}-Y[NMeA]DPHLPWSW[NMehSer](Me)[NMeNle]R[ξC]G-NH2; thioether N-14) | 6.76 to 30.3 | 4.78 to 72.9 | – | –
8 | CCCC[C@H]1C(=O)N(C)[C@@H](CCCC)C(=O)N[C@@H](CCCNC(=N)N)C(=O)NC(C(=O)NCC(N)=O)CSCC(=O)N[C@@H](Cc2ccc(O)cc2)C(=O)N(C)[C@@H](C)C(=O)N[C@@H](CC(N)=O)C(=O)N2C[C@H](O)C[C@H]2C(=O)N[C@@H](Cc2cnc[nH]2)C(=O)N[C@@H](CC(C)C)C(=O)N2CCC[C@H]2C(=O)N[C@@H](Cc2c[nH]c3ccccc23)C(=O)N[C@@H](CO)C(=O)N[C@@H](Cc2c[nH]c3ccccc23)C(=O)N1C (stereo partly shown) [Example 9011] ({CH2CO}-Y[NMeA]N[Hyp]HLPWSW[NMeNle][NMeNle]R[ξC]G-NH2; thioether N-14) | – | – | 9.4 | 13.5

Further lines, results first:

Row | IC50 [1, 3] [nM] | IC50 [2, 4] [nM] | IC50 ([1]; numeric value, read-out: HTRF IC50 values) [nM] | IC50 ([2]; numeric value, read-out: CBA IC50 values) [nM] | Compound
9 | 0.385 to 6.74 | 0.158 to 4.71 | – | – | CCCC[C@H]1C(=O)N(C)[C@@H](CCOC)C(=O)N[C@@H](CCCNC(=N)N)C(=O)NC(C(=O)NCC(N)=O)CSCC(=O)N[C@@H](Cc2ccc(O)cc2)C(=O)N(C)[C@@H](C)C(=O)N[C@@H](CC(N)=O)C(=O)N2CCC[C@H]2C(=O)N[C@@H](Cc2cnc[nH]2)C(=O)N[C@@H](CC(C)C)C(=O)N2C[C@H](O)C[C@@H]2C(=O)N[C@@H](Cc2c[nH]c3ccccc23)C(=O)N[C@@H](CO)C(=O)N[C@@H](Cc2c[nH]c3ccccc23)C(=O)N1C (stereo partly shown) [Example 9003]
10 | 0.385 to 6.74 | 4.78 to 72.9 | – | – | CCCC[C@H]1C(=O)N[C@@H](CCCNC(=N)N)C(=O)NC(C(=O)NCC(N)=O)CSCC(=O)N[C@@H](Cc2ccc(O)cc2)C(=O)N(C)[C@@H](C)C(=O)N[C@@H](CC(N)=O)C(=O)N2CCC[C@H]2C(=O)N[C@@H](Cc2cnc[nH]2)C(=O)N[C@@H](CC(C)C)C(=O)N2C[C@H](O)C[C@H]2C(=O)N[C@@H](Cc2c[nH]c3ccccc23)C(=O)N[C@@H](CO)C(=O)N[C@@H](Cc2c[nH]c3ccccc23)C(=O)N(C)[C@@H](CCOC)C(=O)N1C (stereo partly shown) [Example 9004]
11 | 0.385 to 6.74 | 0.158 to 4.71 | – | – | CCCC[C@H]1C(=O)N(C)[C@@H](CCOC)C(=O)N[C@@H](CCCNC(=N)N)C(=O)N[C@H](C(=O)NCC(N)=O)CSCC(=O)N[C@@H](Cc2ccc(O)cc2)C(=O)N(C)[C@@H](C)C(=O)N[C@@H](CC(=O)O)C(=O)N2CCC[C@H]2C(=O)N[C@@H](Cc2cnc[nH]2)C(=O)N[C@@H](CC(C)C)C(=O)N2CCC[C@@H]2C(=O)N[C@@H](Cc2c[nH]c3ccccc23)C(=O)N[C@@H](CO)C(=O)N[C@@H](Cc2c[nH]c3ccccc23)C(=O)N1C [Example 9005] ({CH2CO}-Y[NMeA]DPHL[dP]WSW[NMeNle][NMehSer](Me)RCG-NH2; thioether N-14)

From patent US9850283B2, “Macrocyclic inhibitors of the PD-1/PD-L1 and CD80(B7-1)/PD-L1 protein/protein interactions” (BRISTOL-MYERS SQUIBB COMPANY, priority 2013, dated 2017)
